This note sets out measurements from US20240360082A1, “SUBSTITUTED PYRIDONE COMPOUNDS USEFUL TO TREAT ORTH[…]” (priority 2021, published 2024).

pIC50: −log10 of the molar value.

In the first assay the target is influenza A virus minigenome (PB2, PB1, PA, NP proteins) (UniProt P04665). Type of assay: cell-based. To be noted: read-out: RNP_ Hubei B IC50.
influenza A virus minigenome (PB2, PB1, PA, NP proteins), sequence (P04665 whole entry): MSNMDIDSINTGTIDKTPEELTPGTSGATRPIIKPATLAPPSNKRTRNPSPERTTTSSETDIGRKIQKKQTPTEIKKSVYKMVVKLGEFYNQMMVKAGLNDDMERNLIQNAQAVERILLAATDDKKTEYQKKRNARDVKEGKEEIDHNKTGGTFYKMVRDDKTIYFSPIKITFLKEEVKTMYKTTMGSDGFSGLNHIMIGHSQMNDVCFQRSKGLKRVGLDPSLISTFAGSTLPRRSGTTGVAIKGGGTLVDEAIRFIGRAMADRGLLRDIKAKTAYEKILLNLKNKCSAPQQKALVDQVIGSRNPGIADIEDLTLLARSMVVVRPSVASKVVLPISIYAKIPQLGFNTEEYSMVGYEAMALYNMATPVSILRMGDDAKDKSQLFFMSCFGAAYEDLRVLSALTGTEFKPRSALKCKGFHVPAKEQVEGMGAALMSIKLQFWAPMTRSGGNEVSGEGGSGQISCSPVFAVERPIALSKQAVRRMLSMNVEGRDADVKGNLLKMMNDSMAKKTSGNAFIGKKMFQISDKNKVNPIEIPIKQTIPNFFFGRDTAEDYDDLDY
Take `COC[C@@]1(CCl)COC[C@@H](COc2ccc(-c3cc(C(N)=O)c(=O)[nH]c3C(F)(F)F)cc2)O1` [Example 418, 5-(4-(((2S,6S)-6-(chloromethyl)-6-(methoxymethyl)-1,4-dioxan-2-yl)methoxy)phenyl)-2-oxo-6-(trifluoromethyl)-1,2-dihydropyridine-3-carboxamide]: the pIC50 was 5.00 to 5.30.
Turning to `NC(=O)c1cc(-c2ccc(OCc3cnn(CC4CC4)c3)cc2)c(C(F)(F)F)[nH]c1=O` [Example 221, 5-(4-((1-(cyclopropylmethyl)-1H-pyrazol-4-yl)methoxy)phenyl)-2-oxo-6-(trifluoromethyl)-1,2-dihydropyridine-3-carboxamide], the pIC50 was 4.60 to 5.00.
On the same count and under the same terms, to `C[C@]1(CS(=O)(=O)C2CC2)COC[C@@H](COc2ccc(-c3cc(C(N)=O)c(=O)[nH]c3C(F)(F)F)cc2)O1` [Example 413, 5-(4-(((2S,6R)-6-((cyclopropylsulfonyl)methyl)-6-methyl-1,4-dioxan-2-yl)methoxy)phenyl)-2-oxo-6-(trifluoromethyl)-1,2-dihydropyridine-3-carboxamide] belongs 5.00 to 5.30; to `CC1COC(COc2ccc(-c3cc(C(N)=O)c(=O)[nH]c3C(F)(F)F)cc2)CO1` (single isomer, unassigned) [Example 322, 5-(4-((5-methyl-1,4-dioxan-2-yl)methoxy)phenyl)-2-oxo-6-(trifluoromethyl)-1,2-dihydropyridine-3-carboxamide], 4.30 to 4.60; to `CN1[C@H](COc2ccc(-c3cc(C(N)=O)c(=O)[nH]c3C(F)(F)F)cc2)COC[C@@H]1C1CC1` [Example 209, 5-(4-(((3S,5S)-5-cyclopropyl-4-methylmorpholin-3-yl)methoxy)phenyl)-2-oxo-6-(trifluoromethyl)-1,2-dihydropyridine-3-carboxamide], 5.00 to 5.30.
Consider `C[C@@]1(CN2CC(F)C2)COC[C@@H](COc2ccc(-c3cc(C(N)=O)c(=O)[nH]c3C(F)(F)F)cc2)O1` [Example 421], for which the pIC50 was 5.00 to 5.30.
Consider `CCN1CCOCC1COc1ccc(-c2cc(C(N)=O)c(=O)[nH]c2C(F)(F)F)cc1` (stereo not shown) [Example 249, 5-(4-((4-ethylmorpholin-3-yl)methoxy)phenyl)-2-oxo-6-(trifluoromethyl)-1,2-dihydropyridine-3-carboxamide], for which the pIC50 was 5.00 to 5.30.
Turning to `NC(=O)c1cc(-c2ccc(OCC3COCC(F)(F)C3)cc2)c(C(F)(F)F)[nH]c1=O` (single isomer, unassigned) [Example 336, 5-(4-((5,5-difluorotetrahydro-2H-pyran-3-yl)methoxy)phenyl)-2-oxo-6-(trifluoromethyl)-1,2-dihydropyridine-3-carboxamide], the pIC50 is 5.00 to 5.30.
Still for that read-out and setting: to `NC(=O)c1cc(-c2ccc(OCCN3CCOC3=O)cc2)c(C(F)(F)F)[nH]c1=O` [Example 257, 2-oxo-5-(4-(2-(2-oxooxazolidin-3-yl)ethoxy)phenyl)-6-(trifluoromethyl)-1,2-dihydropyridine-3-carboxamide] belongs 4.30 to 4.60; to `NC(=O)c1cc(-c2ccc(OCC3COCC(Cn4cccn4)O3)cc2)c(C(F)(F)F)[nH]c1=O` (single isomer, unassigned) [Example 377, 5-(4-((6-((1H-pyrazol-1-yl)methyl)-1,4-dioxan-2-yl)methoxy)phenyl)-2-oxo-6-(trifluoromethyl)-1,2-dihydropyridine-3-carboxamide], 5.00 to 5.30.
On to `NC(=O)c1cc(-c2ccc(OCC3COCC(COC4CC(F)(F)C4)O3)cc2)c(C(F)(F)F)[nH]c1=O` (single isomer, unassigned) [Example 366, 5-(4-((6-((3,3-difluorocyclobutoxy)methyl)-1,4-dioxan-2-yl)methoxy)phenyl)-2-oxo-6-(trifluoromethyl)-1,2-dihydropyridine-3-carboxamide], for which the pIC50 is 5.00 to 5.30.
With `NC(=O)c1cc(-c2ccc(OCC3COCC(COCC4CC4)O3)cc2)c(C(F)(F)F)[nH]c1=O` (single isomer, unassigned) [Example 363, 5-(4-((6-((cyclopropylmethoxy)methyl)-1,4-dioxan-2-yl)methoxy)phenyl)-2-oxo-6-(trifluoromethyl)-1,2-dihydropyridine-3-carboxamide], the pIC50 is 5.00 to 5.30.
Turning to `CCc1cc(COc2ccc(-c3cc(C(N)=O)c(=O)[nH]c3C(F)(F)F)cc2)n(C)n1` [Example 262, 5-(4-((3-ethyl-1-methyl-1H-pyrazol-5-yl)methoxy)phenyl)-2-oxo-6-(trifluoromethyl)-1,2-dihydropyridine-3-carboxamide], the pIC50 is 4.30 to 4.60.
As for `CN1[C@@H](COc2ccc(-c3cc(C(N)=O)c(=O)[nH]c3C(F)(F)F)cc2)COC[C@@H]1C1CC1` [Example 210, 5-(4-(((3R,5S)-5-cyclopropyl-4-methylmorpholin-3-yl)methoxy)phenyl)-2-oxo-6-(trifluoromethyl)-1,2-dihydropyridine-3-carboxamide], the pIC50 was 5.00 to 5.30.
On the same count and under the same terms, under `COC[C@@]1(CF)COC[C@@H](COc2ccc(-c3cc(C(N)=O)c(=O)[nH]c3C(F)(F)F)cc2)O1` [Example 417, 5-(4-(((2S,6S)-6-(fluoromethyl)-6-(methoxymethyl)-1,4-dioxan-2-yl)methoxy)phenyl)-2-oxo-6-(trifluoromethyl)-1,2-dihydropyridine-3-carboxamide] stands 5.00 to 5.30.

The same assay, now with this note: read-out: RNP_Hubei B.
As for `CN1CCC(COc2ccc(-c3cc(C(N)=O)c(=O)[nH]c3C(F)(F)F)cc2)CC1` [Example 83, 5-(4-((1-methylpiperidin-4-yl)methoxy)phenyl)-2-oxo-6-(trifluoromethyl)-1,2-dihydropyridine-3-carboxamide], the pIC50 is 4.30 to 4.60.
Regarding `NC(=O)c1cc(-c2ccc(OCc3ccnnc3)cc2)c(C(F)(F)F)[nH]c1=O` [Example 84, 2-oxo-5-(4-(pyridazin-4-ylmethoxy)phenyl)-6-(trifluoromethyl)-1,2-dihydropyridine-3-carboxamide], the pIC50 is 4.30 to 4.60.
`NC(=O)c1cc(-c2ccc(OCc3cccnc3)cc2)c(C(F)(F)F)[nH]c1=O` [Example 72, 2-oxo-5-(4-(pyridin-3-ylmethoxy)phenyl)-6-(trifluoromethyl)-1,2-dihydropyridine-3-carboxamide]: the pIC50 is 4.30 to 4.60.
As to `NC(=O)c1cc(-c2ccc(CN3CCCC3)cc2)c(C(F)(F)F)[nH]c1=O` [Example 5, 2-oxo-5-(4-(pyrrolidin-1-ylmethyl)phenyl)-6-(trifluoromethyl)-1,2-dihydropyridine-3-carboxamide], the pIC50 was 4.30 to 4.60.
Turning to `NC(=O)c1cc(-c2ccc(OCc3ccsc3)cc2)c(C(F)(F)F)[nH]c1=O` [Example 110, 2-oxo-5-(4-(thiophen-3-ylmethoxy)phenyl)-6-(trifluoromethyl)-1,2-dihydropyridine-3-carboxamide], the pIC50 is 5.00 to 5.30.
On to `CCCNc1cccc(COc2ccc(-c3cc(C(N)=O)c(=O)[nH]c3C(F)(F)F)cc2)c1` [Example 66, 2-oxo-5-(4-((3-(propylamino)benzyl)oxy)phenyl)-6-(trifluoromethyl)-1,2-dihydropyridine-3-carboxamide], for which the pIC50 was 6.00 to 7.00.
For the compound `NC(=O)c1cc(-c2ccc(OCc3cnc4c(c3)ncn4CC3CC3)cc2)c(C(F)(F)F)[nH]c1=O` [Example 175, 5-(4-((3-(cyclopropylmethyl)-3H-imidazo[4,5-b]pyridin-6-yl)methoxy)phenyl)-2-oxo-6-(trifluoromethyl)-1,2-dihydropyridine-3-carboxamide], the pIC50 was 4.30 to 4.60.
On the same count and under the same terms, under `N#Cc1ccccc1COc1ccc(-c2cc(C(N)=O)c(=O)[nH]c2C(F)(F)F)cc1` [Example 89, 5-(4-((2-cyanobenzyl)oxy)phenyl)-2-oxo-6-(trifluoromethyl)-1,2-dihydropyridine-3-carboxamide] stands 4.30 to 4.60; under `NC(=O)c1cc(-c2ccc(OCC3COCC(C(F)F)O3)cc2)c(C(F)(F)F)[nH]c1=O` (single isomer, unassigned) [Example 348, 5-(4-((6-(difluoromethyl)-1,4-dioxan-2-yl)methoxy)phenyl)-2-oxo-6-(trifluoromethyl)-1,2-dihydropyridine-3-carboxamide], 5.00 to 5.30; under `NC(=O)c1cc(-c2ccc(CO)cc2)c(C(F)(F)F)[nH]c1=O` [Example 2, 5-(4-(hydroxymethyl)phenyl)-2-oxo-6-(trifluoromethyl)-1,2-dihydropyridine-3-carboxamide], 4.30 to 4.60.
`Cn1cc(COc2ccc(-c3cc(C(N)=O)c(=O)[nH]c3C(F)(F)F)cc2)c(C(F)(F)F)n1` [Example 109, 5-(4-((1-methyl-3-(trifluoromethyl)-1H-pyrazol-4-yl)methoxy)phenyl)-2-oxo-6-(trifluoromethyl)-1,2-dihydropyridine-3-carboxamide]: the pIC50 is 4.30 to 4.60.
In the case of `Cc1noc(C)c1COc1ccc(-c2cc(C(N)=O)c(=O)[nH]c2C(F)(F)F)cc1` [Example 107, 5-(4-((3,5-dimethylisoxazol-4-yl)methoxy)phenyl)-2-oxo-6-(trifluoromethyl)-1,2-dihydropyridine-3-carboxamide], the pIC50 is 4.30 to 4.60.
As to `NC(=O)c1cc(-c2ccc(OCC3CCCCC3)cc2)c(C(F)(F)F)[nH]c1=O` [Example 58, 5-(4-(cyclohexylmethoxy)phenyl)-2-oxo-6-(trifluoromethyl)-1,2-dihydropyridine-3-carboxamide], the pIC50 was 5.00 to 5.30.
As to `NC(=O)c1cc(-c2ccc(CC3(O)CCOCC3)cc2)c(C(F)(F)F)[nH]c1=O` [Example 50, 5-(4-((4-hydroxytetrahydro-2H-pyran-4-yl)methyl)phenyl)-2-oxo-6-(trifluoromethyl)-1,2-dihydropyridine-3-carboxamide], the pIC50 is 4.30 to 4.60.
Take `CC(c1ccc(-c2cc(C(N)=O)c(=O)[nH]c2C(F)(F)F)cc1)N1CCOCC1` (stereo not shown) [Example 33, 5-(4-(1-morpholinoethyl)phenyl)-2-oxo-6-(trifluoromethyl)-1,2-dihydropyridine-3-carboxamide]: the pIC50 is 5.30 to 6.00.
Turning to `NC(=O)c1cc(-c2ccc(CN3CCOCC34CC4)cc2)c(C(F)(F)F)[nH]c1=O` [Example 30, 5-(4-((7-oxa-4-azaspiro[2.5]octan-4-yl)methyl)phenyl)-2-oxo-6-(trifluoromethyl)-1,2-dihydropyridine-3-carboxamide], the pIC50 is 5.00 to 5.30.
